Laboratory results: patent US9212182B2, “Bicyclic sulfonamide compounds as sodium channel inhibitors” (AMGEN INC., priority 2013, dated 2015)

target: Nav 1.7 (Homo sapiens (Human), UniProt Q15858); test: in-vitro Nav 1.7 PX (IC50); type: cell-based; conditions: not given
Sequence (Q15858 whole entry): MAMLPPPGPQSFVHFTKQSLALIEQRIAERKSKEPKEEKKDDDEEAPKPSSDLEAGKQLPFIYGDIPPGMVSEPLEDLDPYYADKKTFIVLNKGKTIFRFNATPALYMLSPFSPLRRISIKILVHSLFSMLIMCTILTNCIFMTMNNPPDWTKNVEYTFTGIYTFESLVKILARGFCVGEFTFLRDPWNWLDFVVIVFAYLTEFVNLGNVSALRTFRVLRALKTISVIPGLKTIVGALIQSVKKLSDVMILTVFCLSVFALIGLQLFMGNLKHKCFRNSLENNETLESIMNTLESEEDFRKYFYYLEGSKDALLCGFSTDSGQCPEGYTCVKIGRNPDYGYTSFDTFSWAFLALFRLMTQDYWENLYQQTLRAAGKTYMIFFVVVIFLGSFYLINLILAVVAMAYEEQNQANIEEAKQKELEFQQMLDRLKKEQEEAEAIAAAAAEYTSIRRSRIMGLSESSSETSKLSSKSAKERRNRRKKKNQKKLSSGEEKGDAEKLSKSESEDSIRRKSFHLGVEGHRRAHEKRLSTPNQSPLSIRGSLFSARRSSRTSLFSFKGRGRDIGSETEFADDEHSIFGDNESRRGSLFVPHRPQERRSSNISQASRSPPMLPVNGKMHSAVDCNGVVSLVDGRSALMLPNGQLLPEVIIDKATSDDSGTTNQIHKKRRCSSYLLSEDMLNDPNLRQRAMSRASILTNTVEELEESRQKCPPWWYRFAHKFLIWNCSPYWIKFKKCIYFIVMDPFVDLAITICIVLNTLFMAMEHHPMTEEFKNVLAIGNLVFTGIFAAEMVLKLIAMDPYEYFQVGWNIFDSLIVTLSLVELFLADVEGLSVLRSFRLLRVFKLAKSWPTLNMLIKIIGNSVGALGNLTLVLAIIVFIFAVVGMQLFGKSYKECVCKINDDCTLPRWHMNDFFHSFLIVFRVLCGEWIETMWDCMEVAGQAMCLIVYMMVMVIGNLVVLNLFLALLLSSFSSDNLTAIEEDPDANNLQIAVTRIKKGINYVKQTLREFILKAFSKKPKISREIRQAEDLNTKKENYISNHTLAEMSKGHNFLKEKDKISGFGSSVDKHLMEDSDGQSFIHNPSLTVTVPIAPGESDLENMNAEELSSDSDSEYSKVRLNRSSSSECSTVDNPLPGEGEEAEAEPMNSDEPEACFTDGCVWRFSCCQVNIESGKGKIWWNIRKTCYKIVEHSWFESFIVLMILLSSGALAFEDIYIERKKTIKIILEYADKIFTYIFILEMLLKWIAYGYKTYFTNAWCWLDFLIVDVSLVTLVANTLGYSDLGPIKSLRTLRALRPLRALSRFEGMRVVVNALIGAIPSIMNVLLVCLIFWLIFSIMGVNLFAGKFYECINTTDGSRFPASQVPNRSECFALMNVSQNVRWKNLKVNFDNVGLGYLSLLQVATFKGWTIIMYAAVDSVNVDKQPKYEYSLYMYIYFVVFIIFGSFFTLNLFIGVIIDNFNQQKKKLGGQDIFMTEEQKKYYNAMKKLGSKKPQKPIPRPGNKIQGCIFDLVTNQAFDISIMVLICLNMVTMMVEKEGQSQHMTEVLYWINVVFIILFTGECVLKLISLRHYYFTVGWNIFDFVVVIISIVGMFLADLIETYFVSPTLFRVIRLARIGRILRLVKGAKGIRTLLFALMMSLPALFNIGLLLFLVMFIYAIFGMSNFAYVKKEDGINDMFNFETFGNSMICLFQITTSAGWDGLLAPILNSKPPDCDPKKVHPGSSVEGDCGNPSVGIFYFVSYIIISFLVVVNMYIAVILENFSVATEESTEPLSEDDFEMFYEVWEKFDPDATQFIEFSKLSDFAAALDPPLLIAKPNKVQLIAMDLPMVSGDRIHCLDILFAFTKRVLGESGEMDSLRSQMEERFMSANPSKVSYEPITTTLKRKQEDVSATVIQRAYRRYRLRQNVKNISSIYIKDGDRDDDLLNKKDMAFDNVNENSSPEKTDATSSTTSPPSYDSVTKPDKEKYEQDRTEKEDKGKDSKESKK

Compared with `COc1cc(-c2cc(F)cnc2OC)c(C)cc1-n1c(=O)ccc2cc(S(=O)(=O)Nc3ccon3)ccc21` (atropisomer, axis not shown; (M)) [Example 425, (M)-1-(4-(5-fluoro-2-methoxy-3-pyridinyl)-2-methoxy-5-methylphenyl)-N-3-isoxazolyl-2-oxo-1,2-dihydro-6-quinolinesulfonamide], `COc1cc(-c2cc(F)cc(Cl)c2)c(C)cc1-n1c(=O)ccc2cc(S(=O)(=O)Nc3ccon3)ccc21` (atropisomer, axis not shown; (P)) [Example 417, (P)-1-(3′-chloro-5′-fluoro-5-methoxy-2-methyl-4-biphenylyl)-N-3-isoxazolyl-2-oxo-1,2-dihydro-6-quinolinesulfonamide] is 2200-fold lower in IC50: 20100 nM for the first, 9 nM for the second. The second is the more potent here.

Compared with `COc1ccc(-c2cccc(C#N)c2)cc1-n1c(=O)ccc2cc(S(=O)(=O)Nc3ccon3)ccc21` [Example 493, 1-(3′-cyano-4-methoxy-3-biphenylyl)-N-3-isoxazolyl-2-oxo-1,2-dihydro-6-quinolinesulfonamide], `COc1cc(-c2ccc(Cl)c(F)c2)ccc1-n1c(=O)ccc2cc(S(=O)(=O)Nc3ccon3)ccc21` (atropisomer, axis not shown; (P)) [Example 580, (P)-1-(4′-chloro-3′-fluoro-3-methoxy-4-biphenylyl)-N-3-isoxazolyl-2-oxo-1,2-dihydro-6-quinolinesulfonamide] is 38-fold lower in IC50: 418 nM for the first, 11 nM for the second. The second is the more potent here.

`COc1cc(-c2cc(F)cc(Cl)c2)c(F)cc1-n1c(=O)ccc2cc(S(=O)(=O)Nc3ncon3)ccc21` (atropisomer, axis not shown; (P)) [Example 326, (P)-1-(3′-chloro-2,5′-difluoro-5-methoxy-4-biphenylyl)-N-1,2,4-oxadiazol-3-yl-2-oxo-1,2-dihydro-6-quinolinesulfonamide] showed an IC50 of 5 nM.

same assay, conditions: in-vitro Nav 1.7 PX data

First: COc1cc(-c2cccc(C(F)(F)F)c2)ccc1-n1c(=O)ccc2cc(S(=O)(=O)Nc3ccncn3)ccc21 (atropisomer, axis not shown; (P)) [Example 671, (P)-1-(3-methoxy-3′-(trifluoromethyl)-4-biphenylyl)-2-oxo-N-4-pyrimidinyl-1,2-dihydro-6-quinolinesulfonamide]
Second: COc1cc(-c2cccc(C)c2)ccc1-n1c(=O)ccc2cc(S(=O)(=O)Nc3ncco3)ccc21 [Example 1113, 1-(3-methoxy-3′-methyl-4-biphenylyl)-N-1,3-oxazol-2-yl-2-oxo-1,2-dihydro-6-quinolinesulfonamide]
The IC50 of the first is 4-fold lower: 11 nM for the first, 44 nM for the second. The first is the more potent here.

Compared with `COc1cc(-c2ccccc2C)c(F)cc1-n1c(=O)ccc2cc(S(=O)(=O)Nc3ccon3)ccc21` [Example 953, 1-(2-fluoro-5-methoxy-2′-methyl-4-biphenylyl)-N-3-isoxazolyl-2-oxo-1,2-dihydro-6-quinolinesulfonamide], `COc1ccccc1-c1cc(OC)c(-n2c(=O)ccc3cc(S(=O)(=O)Nc4ccon4)ccc32)cc1F` [Example 956, 1-(2-fluoro-2′,5-dimethoxy-4-biphenylyl)-N-3-isoxazolyl-2-oxo-1,2-dihydro-6-quinolinesulfonamide] is 3.8-fold higher in IC50: 26 nM for the first, 99 nM for the second.

First: COc1ccc(-c2ccc(-n3c(=O)ccc4cc(S(=O)(=O)Nc5ccon5)ccc43)c(OC)c2)cc1Cl [Example 1026, 1-(3′-chloro-3,4′-dimethoxy-4-biphenylyl)-N-3-isoxazolyl-2-oxo-1,2-dihydro-6-quinolinesulfonamide]
Second: COc1cc(-c2cc(Cl)ccc2C)ccc1-n1c(=O)ccc2cc(S(=O)(=O)Nc3ccon3)ccc21 [Example 1029, 1-(5′-chloro-3-methoxy-2′-methyl-4-biphenylyl)-N-3-isoxazolyl-2-oxo-1,2-dihydro-6-quinolinesulfonamide]
The IC50 of the first is 20-fold higher: 59 nM for the first, 3 nM for the second.

Compared with `COc1cc(-c2cccc(OC)c2F)c(C)cc1-n1c(=O)ccc2cc(S(=O)(=O)Nc3ncccn3)ccc21` [Example 964, 1-(2′-fluoro-3′,5-dimethoxy-2-methyl-4-biphenylyl)-2-oxo-N-2-pyrimidinyl-1,2-dihydro-6-quinolinesulfonamide], `COc1cc(-c2cc(Cl)cnc2OC)c(F)cc1-n1c(=O)ccc2cc(S(=O)(=O)Nc3ccnc(C)n3)ccc21` [Example 778, 1-(4-(5-chloro-2-methoxy-3-pyridinyl)-5-fluoro-2-methoxyphenyl)-N-(2-methyl-4-pyrimidinyl)-2-oxo-1,2-dihydro-6-quinolinesulfonamide] is 2.2-fold lower in IC50: 246 nM for the first, 111 nM for the second.

First: COc1cc(-c2ccc(Cl)c(C)c2)c(F)cc1-n1c(=O)ccc2cc(S(=O)(=O)Nc3ccsn3)ccc21 [Example 1073, 1-(4′-chloro-2-fluoro-5-methoxy-3′-methyl-4-biphenylyl)-N-3-isothiazolyl-2-oxo-1,2-dihydro-6-quinolinesulfonamide]
Second: COc1cc(C)cc(-c2cc(OC)c(-n3c(=O)ccc4cc(S(=O)(=O)Nc5ccon5)ccc43)cc2F)c1 [Example 708, 1-(2-fluoro-3′,5-dimethoxy-5′-methyl-4-biphenylyl)-N-3-isoxazolyl-2-oxo-1,2-dihydro-6-quinolinesulfonamide]
The IC50 of the first is 2.3-fold higher: 23 nM for the first, 10 nM for the second. The second is the more potent here.

Compared with `COc1cc(C[C@@H]2CCOC2)c(F)cc1-n1c(=O)ccc2cc(S(=O)(=O)Nc3ccon3)ccc21` [Example 1123, 1-(5-fluoro-2-methoxy-4-((3R)-tetrahydro-3-furanylmethyl)phenyl)-N-3-isoxazolyl-2-oxo-1,2-dihydro-6-quinolinesulfonamide, 1-(5-fluoro-2-methoxy-4-((3S)-tetrahydro-3-furanylmethyl)phenyl)-N-3-isoxazolyl-2-oxo-1,2-dihydro-6-quinolinesulfonamide], `COc1cc(CC2CCOCC2)c(F)cc1-n1c(=O)ccc2cc(S(=O)(=O)Nc3ccon3)ccc21` [Example 1121, 1-(5-fluoro-2-methoxy-4-(tetrahydro-2H-pyran-4-ylmethyl)phenyl)-N-3-isoxazolyl-2-oxo-1,2-dihydro-6-quinolinesulfonamide] is 2.3-fold lower in IC50: 1600 nM for the first, 694 nM for the second. The second is the more potent here.

Compared with `COc1ccc(-c2ccc(C(F)(F)F)cc2)cc1-n1c(=O)ccc2cc(S(=O)(=O)Nc3ccon3)ccc21` [Example 856, N-3-isoxazolyl-1-(4-methoxy-4′-(trifluoromethyl)-3-biphenylyl)-2-oxo-1,2-dihydro-6-quinolinesulfonamide], `COc1ccc(-c2ccc(F)c(C#N)c2)cc1-n1c(=O)ccc2cc(S(=O)(=O)Nc3ccon3)ccc21` [Example 834, 1-(3′-cyano-4′-fluoro-4-methoxy-3-biphenylyl)-N-3-isoxazolyl-2-oxo-1,2-dihydro-6-quinolinesulfonamide] is 8.4-fold higher in IC50: 35 nM for the first, 294 nM for the second.

First: COc1ccc(-c2ccccc2Cl)cc1-n1c(=O)ccc2cc(S(=O)(=O)Nc3ccon3)ccc21 [Example 842, 1-(2′-chloro-4-methoxy-3-biphenylyl)-N-3-isoxazolyl-2-oxo-1,2-dihydro-6-quinolinesulfonamide]
Second: COc1ccc(-c2ccc(F)cc2F)cc1-n1c(=O)ccc2cc(S(=O)(=O)Nc3ccon3)ccc21 [Example 837, 1-(2′,4′-difluoro-4-methoxy-3-biphenylyl)-N-3-isoxazolyl-2-oxo-1,2-dihydro-6-quinolinesulfonamide]
The IC50 of the first is 2.5-fold lower: 72 nM for the first, 178 nM for the second. The first is the more potent here.

Going from `COc1cc(-c2cncc(C(F)(F)F)c2)c(F)cc1-n1c(=O)ccc2cc(S(=O)(=O)Nc3ccon3)ccc21` [Example 721, 1-(5-fluoro-2-methoxy-4-(5-(trifluoromethyl)-3-pyridinyl)phenyl)-N-3-isoxazolyl-2-oxo-1,2-dihydro-6-quinolinesulfonamide] to `COc1cc(-c2ccc(F)cc2)c(F)cc1-n1c(=O)ccc2cc(S(=O)(=O)Nc3ncc(F)cn3)ccc21` [Example 769, 1-(2,4′-difluoro-5-methoxy-4-biphenylyl)-N-(5-fluoro-2-pyrimidinyl)-2-oxo-1,2-dihydro-6-quinolinesulfonamide], the IC50 rises from 32 nM to 100 nM (3.1-fold).

Going from `COc1ccc(-c2cc(F)cc(Cl)c2)cc1-n1c(=O)ccc2cc(S(=O)(=O)Nc3cnccn3)ccc21` [Example 860, 1-(3′-chloro-5′-fluoro-4-methoxy-3-biphenylyl)-2-oxo-N-2-pyrazinyl-1,2-dihydro-6-quinolinesulfonamide] to `COc1cc(CC2CCCCC2)c(F)cc1-n1c(=O)ccc2cc(S(=O)(=O)Nc3ccncn3)ccc21` [Example 1115, 1-(4-(cyclohexylmethyl)-5-fluoro-2-methoxyphenyl)-2-oxo-N-4-pyrimidinyl-1,2-dihydro-6-quinolinesulfonamide], the IC50 falls from 251 nM to 81 nM (3.1-fold). The second is the more potent here.

same assay, conditions: in-vitro Nav 1.7 PX data (PatchXpress)

Compared with `CC(C#N)Oc1cc(Br)c(F)cc1-n1c(=O)ccc2cc(S(=O)(=O)Nc3ccon3)ccc21` (stereo not shown) [Example 680, 1-(4-bromo-2-(1-cyanoethoxy)-5-fluorophenyl)-N-(isoxazol-3-yl)-2-oxo-1,2-dihydroquinoline-6-sulfonamide], `COc1cc(-c2ccc(C)cc2Cl)ccc1-n1c(=O)ccc2cc(S(=O)(=O)Nc3ccon3)ccc21` [Example 1060, 1-(2′-chloro-3-methoxy-4′-methyl-4-biphenylyl)-N-3-isoxazolyl-2-oxo-1,2-dihydro-6-quinolinesulfonamide] is 910-fold lower in IC50: 25400 nM for the first, 28 nM for the second.

First: COc1cc(-c2cc(C)ccc2C)ccc1-n1c(=O)ccc2cc(S(=O)(=O)Nc3ccon3)ccc21 [Example 1055, N-3-isoxazolyl-1-(3-methoxy-2′,5′-dimethyl-4-biphenylyl)-2-oxo-1,2-dihydro-6-quinolinesulfonamide]
Second: COc1cc(-c2cccc(C)c2C)ccc1-n1c(=O)ccc2cc(S(=O)(=O)Nc3ccon3)ccc21 [Example 1056, N-3-isoxazolyl-1-(3-methoxy-2′,3′-dimethyl-4-biphenylyl)-2-oxo-1,2-dihydro-6-quinolinesulfonamide]
The IC50 of the first is 1.6-fold lower: 16 nM for the first, 25 nM for the second. The first is the more potent here.

same assay, conditions: in-vitro PatchXpress (PX)

Going from `COc1cc(-c2ccc(Cl)c(C)c2)ccc1-n1c(=O)ccc2cc(S(=O)(=O)Nc3cccnn3)ccc21` (atropisomer, axis not shown; (P)) [Example 371, (P)-1-(4′-chloro-3-methoxy-3′-methyl-4-biphenylyl)-2-oxo-N-3-pyridazinyl-1,2-dihydro-6-quinolinesulfonamide] to `COc1cc(-c2ccc(Cl)c(F)c2)c(F)cc1-n1c(=O)ccc2cc(S(=O)(=O)Nc3ccon3)ccc21` (atropisomer, axis not shown; (M)) [Example 504, (M)-1-(4′-chloro-2,3′-difluoro-5-methoxy-4-biphenylyl)-N-3-isoxazolyl-2-oxo-1,2-dihydro-6-quinolinesulfonamide], the IC50 falls from 4360 nM to 8 nM (540-fold). The second is the more potent here.
